Results published in US20160251725A1, “METHOD FOR PREDICTING CLINICAL TOXICITY AND OUTCOME” (AGENCY FOR SCIENCE, TECHNOLOGY AND RESEARCH, priority 2013, published 2016).

System: mRCC patients
Test: Sunitinib toxicities in mRCC patients (CTCAE version 3.0), association with patient factors and genotypes
Format: in vivo, human
Method: Twelve patients in this study received a starting dose of 50 mg daily. Six patients started with 25 mg daily due to advanced age or patients' aversion to expected toxicities.
Patient characteristics were also collected including age, gender, ethnicity, body weight and height, and Eastern Cooperative Oncology Group (ECOG) performance status. Memorial Sloan-Kettering Cancer Center (MSKCC) prognostic score was calculated for each patient with available data. All the collected data were de-identified by a third party before being used in statistical analysis. The follow-up period ended at the end of April, 2014.
The toxicities analyzed included leucopenia, neutropenia, thrombocytopenia, diarrhea, hand-foot syndrome and early toxicity-necessitated treatment termination. […] Early toxicity-necessitated treatment termination was defined as interruption of the first or second treatment cycle consented by the patient and the physician based on recognition of intolerable or life-threatening toxicities without evidence of progressive disease and failure to resume treatment as far as the patient was followed. For patients experiencing any toxicity grade≧2, cycle interruptions were frequently required; in such cases, a resumed treatment with 25% dose reduction would be applied for safety and life quality considerations.
Genotype associations with toxicity events or responsive tumor were first analyzed using univariate logistic regression. Genotypes generating P<0.20 were further analyzed using multivariate logistic regression including patient age, gender, baseline ECOG status and starting dose as covariates. Progression-free survival and overall survival were estimated by means of Kaplan-Meier method, while the associations of genotypes and patient characteristics with PFS and OS were analyzed using two-tailed log rank test. The effects of genotypes on the progression-free survival and overall survival were then evaluated using multivariate Cox regression model by including genotypes and patient characteristics with P<0.05 in univariate analysis. […] In all analyses, missing data were kept missing except for baseline ECOG status, which was replaced with the median value. As this was designed as a validation study of previously observed correlations rather than an exploratory evaluation, multiple testing correction was not done.

[1] = ABCB1 2677 TT + AT + GT vs Other
[2] = ABCB1 haplotype TTT/TTT vs Other

CCN(CC)CCNC(=O)c1c(C)[nH]c(/C=C2\C(=O)Nc3ccc(F)cc32)c1C [sunitinib]
Decrease of the risk of diarrhea (ABCB1 1236 T allele): 25 fold
Decrease of the risk of early toxicity-necessitated treatment termination (ABCB1 1236 T allele): 10 fold
Decrease of the risk of neutropenia (ABCB1 1236 T allele): 3 fold
Diarrhea prevalence (ABCB1 1236 T/C CC): 7/9
Neutropenia prevalence (ABCB1 1236 T/C CC + CT): 27/52
Toxicity-necessitated treatment termination prevalence (ABCB1 1236 T/C CC + CT): 10/53
Neutropenia prevalence (ABCB1 1236 T/C TT): 11/32
Toxicity-necessitated treatment termination prevalence (ABCB1 1236 T/C TT): 2/30
Diarrhea prevalence (ABCB1 1236 T/C TT + CT): 13/82
Diarrhea OR multivariate (ABCB1 1236 TT + CT vs CC): 0.04
Diarrhea OR univariate (ABCB1 1236 TT + CT vs CC): 0.1
Neutropenia OR multivariate (ABCB1 1236 TT vs CC + CT): 0.3
Neutropenia OR univariate (ABCB1 1236 TT vs CC + CT): 0.5
Toxicity-necessitated treatment termination OR multivariate (ABCB1 1236 TT vs CC + CT): 0.1
Toxicity-necessitated treatment termination OR univariate (ABCB1 1236 TT vs CC + CT): 0.3
Neutropenia prevalence (ABCB1 2677 G/TA Other): 20/35
Neutropenia prevalence (ABCB1 2677 G/TA TT + AT + GT): 20/53
Decrease of the risk of neutropenia (ABCB1 2677 T allele): 3 fold
Neutropenia OR multivariate [1]: 0.4
Neutropenia OR univariate [1]: 0.5
Decrease of the risk of neutropenia (ABCB1 3435, 1236, 2677 TTT haplotype): 10 fold
Neutropenia prevalence (ABCB1 3435 C/T CC + CT): 38/75
Neutropenia prevalence (ABCB1 3435 C/T TT): 1/12
Decrease of the risk of diarrhea (ABCB1 3435 T allele): 3 fold
Decrease of the risk of neutropenia (ABCB1 3435 T allele): 10 fold
Diarrhea prevalence (ABCB1 3435 T/C CC): 11/34
Diarrhea prevalence (ABCB1 3435 T/C TT + CT): 9/60
Diarrhea OR multivariate (ABCB1 3435 TT + CT vs CC): 0.3
Diarrhea OR univariate (ABCB1 3435 TT + CT vs CC): 0.4
Neutropenia OR multivariate (ABCB1 3435 TT vs CC + CT): 0.1
Neutropenia OR univariate (ABCB1 3435 TT vs CC + CT): 0.1
Neutropenia prevalence (ABCB1 haplotype Other): 38/79
Neutropenia prevalence (ABCB1 haplotype TTT/TTT): 1/8
Neutropenia OR multivariate [2]: 0.1
Neutropenia OR univariate [2]: 0.2
Decrease of the risk of neutropenia (ABCG2 421 A allele): 3 fold
Neutropenia OR multivariate (ABCG2 421 AA vs CC + AC): 0.3
Neutropenia OR univariate (ABCG2 421 AA vs CC + AC): 0.5
Neutropenia prevalence (ABCG2 421 C/A AA): 16/44
Neutropenia prevalence (ABCG2 421 C/A CC + AC): 23/42
Diarrhea OR univariate (Age): 1.0
Leucopenia OR univariate (Age): 1.0
Neutropenia OR univariate (Age): 1.0
Toxicity-necessitated treatment termination OR univariate (Age): 1.1
Diarrhea prevalence (Baseline ECOG 0): 6/27
Leucopenia prevalence (Baseline ECOG 0): 1/25
Neutropenia prevalence (Baseline ECOG 0): 13/25
Toxicity-necessitated treatment termination prevalence (Baseline ECOG 0): 2/26
Diarrhea prevalence (Baseline ECOG 1): 9/50
Leucopenia prevalence (Baseline ECOG 1): 9/44
Neutropenia prevalence (Baseline ECOG 1): 22/46
Toxicity-necessitated treatment termination prevalence (Baseline ECOG 1): 7/44
Diarrhea OR univariate (Baseline ECOG 1 vs 0): 0.8
Leucopenia OR univariate (Baseline ECOG 1 vs 0): 6.2
Neutropenia OR univariate (Baseline ECOG 1 vs 0): 0.9
Toxicity-necessitated treatment termination OR univariate (Baseline ECOG 1 vs 0): 2.3
Diarrhea prevalence (Baseline ECOG 2): 4/12
Leucopenia prevalence (Baseline ECOG 2): 1/12
Neutropenia prevalence (Baseline ECOG 2): 5/12
Toxicity-necessitated treatment termination prevalence (Baseline ECOG 2): 2/12
Diarrhea OR univariate (Baseline ECOG 2 vs 0): 1.8
Leucopenia OR univariate (Baseline ECOG 2 vs 0): 2.2
Neutropenia OR univariate (Baseline ECOG 2 vs 0): 0.7
Toxicity-necessitated treatment termination OR univariate (Baseline ECOG 2 vs 0): 2.4
Diarrhea prevalence (Baseline ECOG 3): 1/6
Leucopenia prevalence (Baseline ECOG 3): 0/4
Neutropenia prevalence (Baseline ECOG 3): 0/5
Toxicity-necessitated treatment termination prevalence (Baseline ECOG 3): 2/5
Diarrhea OR univariate (Baseline ECOG 3 vs 0): 0.7
Toxicity-necessitated treatment termination OR univariate (Baseline ECOG 3 vs 0): 8.0
Diarrhea OR univariate (Female vs Male): 1.2
Leucopenia OR univariate (Female vs Male): 3.3
Neutropenia OR univariate (Female vs Male): 2.8
Toxicity-necessitated treatment termination OR univariate (Gender (printed on the Male row)): 0.9
Diarrhea prevalence (Gender Female): 5/21
Leucopenia prevalence (Gender Female): 5/20
Neutropenia prevalence (Gender Female): 13/20
Toxicity-necessitated treatment termination prevalence (Gender Female): 3/21
Diarrhea prevalence (Gender Male): 15/74
Leucopenia prevalence (Gender Male): 6/65
Neutropenia prevalence (Gender Male): 27/68
Toxicity-necessitated treatment termination prevalence (Gender Male): 10/66
Diarrhea prevalence (Starting dose 37.5 mg): 15/78
Leucopenia prevalence (Starting dose 37.5 mg): 10/70
Neutropenia prevalence (Starting dose 37.5 mg): 32/72
Toxicity-necessitated treatment termination prevalence (Starting dose 37.5 mg): 8/71
Diarrhea prevalence (Starting dose 50 mg): 3/12
Leucopenia prevalence (Starting dose 50 mg): 1/11
Neutropenia prevalence (Starting dose 50 mg): 7/11
Toxicity-necessitated treatment termination prevalence (Starting dose 50 mg): 2/12
Diarrhea OR univariate (Starting dose 37.5 vs <37.5 mg): 0.4
Neutropenia OR univariate (Starting dose 37.5 vs <37.5 mg): 3.2
Toxicity-necessitated treatment termination OR univariate (Starting dose 37.5 vs <37.5 mg): 0.0
Diarrhea OR univariate (Starting dose 50 vs <37.5 mg): 0.5
Neutropenia OR univariate (Starting dose 50 vs <37.5 mg): 7.0
Toxicity-necessitated treatment termination OR univariate (Starting dose 50 vs <37.5 mg): 0.1
Diarrhea prevalence (Starting dose <37.5 mg): 2/5
Leucopenia prevalence (Starting dose <37.5 mg): 0/4
Neutropenia prevalence (Starting dose <37.5 mg): 1/5
Toxicity-necessitated treatment termination prevalence (Starting dose <37.5 mg): 3/4
Leucopenia prevalence (cases affected/total in group) (all patients (n = 85), first cycle): 11/85
Toxicity-necessitated treatment termination before completing the first two cycles, prevalence (all patients (n = 87)): 13/87
Neutropenia prevalence (cases affected/total in group) (all patients (n = 88), first cycle): 40/88
Diarrhea prevalence (cases affected/total in group) (all patients (n = 95), first cycle): 20/95
Increase of the risk of leucopenia (both, human, in vivo): 8.0 fold
Increase of the risk of neutropenia (both, human, in vivo): 2.7 fold
Leucopenia prevalence (both, human, in vivo): 8/41
Severe to life-threatening toxicities (early use, initiated at 50 mg daily): frequently noted
Neutropenia prevalence (human, in vivo): 23/41
